Source: patent US7166694B2, “Vaccine against cancerous diseases which is based on mimotopes of antigens expressed on tumor cells” (priority 2000, dated 2007)
Marks after values point to notes of the source that are not given here.

Tests used:
[1] = tested on: Her-2/neu; experiment: ELISA inhibition of the binding of herceptin and HER-2/neu (SKBR3 membranes) by mimotopes; settings: in comparison to uninhibited herceptin control in ELISA, herceptin preincubated overnight
Method: For the ELISA inhibition assay one tries to prevent this bond by preincubation with mimotopes on phages or KLH as carrier.
(§1) The wells of a 96-well ELISA plate (Nunc) were coated with membrane fractions of the Her-2/neu overexpressing cell line SKBR3 and as a control for non-specific antibody bonds with membrane fractions of the Her-2/neu negative cell line HTB 132 in PBS overnight.
(§2) The next day, non-specific binding sites were blocked by 3 percent BSA in PBS. Herceptin as well as herceptin after preincubation with relevant and irrelevant phage mimotopes or by mimotopes on KLH as well as on KLH alone were applied to the coated, blocked ELISA plate in a repeated test. […] HRP enters into a color reaction with the substrate. The result of this color reaction can be quantified by photometer. The absorption coefficient of 450/630 nm (OD) is determined.

[2] = tested on: SKBR3 membranes; experiment: ELISA of control antibody binding to SKBR3 membranes; settings: control antibody against CD20
Method: as §1, §2

Substance	Inhibition of herceptin binding with phage mimotopes [1]	signal on SKBR3 membranes [2]
phage mimotope SEQ ID NO: 9: phage mimotope CHPTLLWPDFC (homo sapiens)	30.2* Percent	
Rituximab: humanized monoclonal antibody directed against the phosphoprotein surface antigen on lymphocytes, CD20; control antibody		could not produce any signal
